Calls of active or inactive are those of the source. The rule behind the calls is not given here.
Tests used:
[1] = molecular target: T1, Carboxylic ester hydrolase (Sus scrofa) (UniProt A0A286ZKB1); assay: Inhibition of porcine cholesterol esterase at 1 nM using para-nitrophenyl butyrate as substrate after 5 mins in presence of sodium taurocholate by spectrophotometric method relative to control
T1 sequence (whole entry): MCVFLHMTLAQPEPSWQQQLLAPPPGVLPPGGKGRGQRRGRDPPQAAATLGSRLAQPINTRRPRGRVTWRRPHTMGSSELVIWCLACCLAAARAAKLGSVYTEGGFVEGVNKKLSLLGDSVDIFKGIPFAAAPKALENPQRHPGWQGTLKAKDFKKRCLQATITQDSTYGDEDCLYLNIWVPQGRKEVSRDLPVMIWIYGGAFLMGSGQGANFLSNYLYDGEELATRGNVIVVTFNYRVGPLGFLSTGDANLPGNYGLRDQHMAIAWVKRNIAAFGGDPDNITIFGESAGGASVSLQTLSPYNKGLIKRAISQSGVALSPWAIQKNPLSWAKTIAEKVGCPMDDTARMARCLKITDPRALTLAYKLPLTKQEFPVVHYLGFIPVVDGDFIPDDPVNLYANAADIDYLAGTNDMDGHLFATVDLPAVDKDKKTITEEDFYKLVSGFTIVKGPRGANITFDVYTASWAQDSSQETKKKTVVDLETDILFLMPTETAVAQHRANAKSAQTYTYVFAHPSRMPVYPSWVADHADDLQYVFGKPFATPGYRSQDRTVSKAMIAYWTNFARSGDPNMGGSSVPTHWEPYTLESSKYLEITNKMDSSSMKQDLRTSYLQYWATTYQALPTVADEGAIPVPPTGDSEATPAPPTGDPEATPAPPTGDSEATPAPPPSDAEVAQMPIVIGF

[2] = molecular target: T1, Carboxylic ester hydrolase (Sus scrofa); assay: Inhibition of porcine cholesterol esterase at 5 nM using para-nitrophenyl butyrate as substrate after 5 mins in presence of sodium taurocholate by spectrophotometric method relative to control
[3] = molecular target: T1, Carboxylic ester hydrolase (Sus scrofa); assay: Inhibition of porcine cholesterol esterase at 10 nM using para-nitrophenyl butyrate as substrate after 5 mins in presence of sodium taurocholate by spectrophotometric method relative to control
[4] = molecular target: T1, Carboxylic ester hydrolase (Sus scrofa); assay: Inhibition of porcine cholesterol esterase at 25 nM using para-nitrophenyl butyrate as substrate after 5 mins in presence of sodium taurocholate by spectrophotometric method relative to control
[5] = molecular target: T1, Carboxylic ester hydrolase (Sus scrofa); assay: Inhibition of porcine cholesterol esterase at 50 nM using para-nitrophenyl butyrate as substrate after 5 mins in presence of sodium taurocholate by spectrophotometric method relative to control
[6] = molecular target: T2, Carboxylic ester hydrolase (Sus scrofa, UniProt A0A286ZKB1); assay: Inhibition of porcine cholesterol esterase using para-nitrophenyl butyrate as substrate after 5 mins in presence of sodium taurocholate by spectrophotometric method
T2 sequence (A0A286ZKB1 whole entry): T1 sequence (whole entry)

[7] = molecular target: T1, Carboxylic ester hydrolase (Sus scrofa); assay: Mixed-type inhibition of porcine cholesterol esterase at 1 to 50 nM using para-nitrophenyl butyrate as substrate after 5 mins in presence of sodium taurocholate by Line-weaver-Burk plot analysis

Structure (SMILES) | inhibition [1] [%] | inhibition [2] [%] | inhibition [3] [%] | inhibition [4] [%] | inhibition [5] [%] | IC50 ([6]; read-out: IC50) [nM] | inhibition [7] | IC50 [6]
O=c1cc(-c2cc(F)cc(F)c2)oc2c1ccc1ccccc12 | 60 | 80 | 90 | 96 | 100 | 0.78 | Active | 
O=c1cc(-c2ccc(C(F)(F)F)cc2)oc2c1ccc1ccccc12 | 25 | 29 | 35 | 46 | 56 |  |  | Not Active
COc1ccc(-c2cc(=O)c3ccc4ccccc4c3o2)cc1 | 11 | 18 | 22 | 28 | 31 |  |  | Not Active
O=c1cc(-c2cccc(Cl)c2)oc2c1ccc1ccccc12 | 51 | 68 | 80 | 83 | 85 | 6.99 |  | 
O=c1cc(-c2c(F)cccc2C(F)(F)F)oc2c1ccc1ccccc12 | 31 | 48 | 52 | 59 | 64 | 38.9 |  | 
O=c1cc(-c2cccc(CCl)c2)oc2c1ccc1ccccc12 | 35 | 45 | 52 | 62 | 68 | 40 |  | 
CC(=O)Oc1cccc(-c2cc(=O)c3ccc4ccccc4c3o2)c1 | 23 | 27 | 36 | 47 | 55 |  |  | Not Active
O=c1cc(-c2cc(F)ccc2C(F)(F)F)oc2c1ccc1ccccc12 | 26 | 34 | 41 | 54 | 63 | 41.3 |  | 

Reference: ChEMBL document CHEMBL4002634, “Benzoflavones as cholesterol esterase inhibitors: Synthesis, biological evaluation and docking studies” (Bioorg Med Chem Lett, 2017)
